IC50 data for 12 compounds are collected here from US20140255392A1 (BAYER INTELLECTUAL PROPERTY GMBH, priority 2011, published 2014).

The target of this test is T1, human kinase Mps-1 (Homo sapiens, UniProt P33981).
T1 construct: N-terminally GST-tagged human full length recombinant Mps-1 kinase; GST (N); purchased Invitrogen, Karslruhe, Germany PV4071
T1 sequence (P33981 1-857): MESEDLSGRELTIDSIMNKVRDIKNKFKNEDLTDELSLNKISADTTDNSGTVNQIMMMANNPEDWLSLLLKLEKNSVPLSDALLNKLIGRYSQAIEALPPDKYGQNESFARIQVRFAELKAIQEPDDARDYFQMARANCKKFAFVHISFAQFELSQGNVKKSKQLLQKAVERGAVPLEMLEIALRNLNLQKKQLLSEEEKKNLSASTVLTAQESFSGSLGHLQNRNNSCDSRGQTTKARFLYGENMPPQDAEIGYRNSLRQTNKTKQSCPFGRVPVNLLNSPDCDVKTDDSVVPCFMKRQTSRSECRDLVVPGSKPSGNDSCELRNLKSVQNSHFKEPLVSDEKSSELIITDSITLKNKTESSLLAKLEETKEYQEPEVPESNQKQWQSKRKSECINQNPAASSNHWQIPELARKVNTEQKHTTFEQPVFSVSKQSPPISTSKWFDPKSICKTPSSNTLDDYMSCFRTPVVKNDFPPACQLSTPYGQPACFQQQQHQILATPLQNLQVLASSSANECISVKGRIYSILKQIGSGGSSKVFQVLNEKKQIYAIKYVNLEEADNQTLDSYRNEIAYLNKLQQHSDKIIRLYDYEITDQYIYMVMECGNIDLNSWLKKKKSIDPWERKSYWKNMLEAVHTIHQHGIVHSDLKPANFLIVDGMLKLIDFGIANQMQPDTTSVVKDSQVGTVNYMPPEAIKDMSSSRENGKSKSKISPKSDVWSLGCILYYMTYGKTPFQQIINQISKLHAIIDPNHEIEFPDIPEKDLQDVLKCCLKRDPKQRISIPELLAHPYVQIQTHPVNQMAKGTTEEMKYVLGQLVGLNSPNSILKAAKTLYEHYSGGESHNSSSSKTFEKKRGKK
The experiment in a line: Mps-1 kinase assay (TR-FRET). It counts as biochemical. The note with it: N-terminally GST-tagged human full length recombinant Mps-1; 10 μM ATP; 1 μM peptide substrate; 60 min at 22° C. How it is done: The human kinase Mps-1 phosphorylates a biotinylated substrate peptide. Detection of the phosphorylated product is achieved by time-resolved fluorescence resonance energy transfer (TR-FRET) from Europium-labelled anti-phospho-Serine/Threonine antibody as donor to streptavidin labelled with cross-linked allophycocyanin (SA-XLent) as acceptor. Compounds are tested for their inhibition of the kinase activity.
N-terminally GST-tagged human full length recombinant Mps-1 kinase (purchased from Invitrogen, Karslruhe, Germany, cat. no PV4071) was used. As substrate for the kinase reaction a biotinylated peptide of the amino-acid sequence […] (C-terminus in amide form, purchased from Biosynthan GmbH, Berlin) was used.
The concentration of Mps-1 in the assay was adjusted to the activity of the enzyme lot and was chosen appropriate to have the assay in the linear range, typical enzyme concentrations were in the range of about 1 nM (final conc. in the 5 μl assay volume).
The resulting mixture was incubated 1 h at 22° C. to allow the binding of the phosphorylated peptide to the anti-phospho(Ser/Thr)-Europium-antibody. Subsequently the amount of phosphorylated substrate was evaluated by measurement of the resonance energy transfer from the Europium-labelled anti-phospho(Ser/Thr) antibody to the Streptavidin-XLent.
On the technique in general: In TR-FRET formats the signal depends on donor and acceptor labels being close together.

Usually IC50 stands for the concentration at which inhibition is half-maximal. As to `C/C=C/c1cc(NCCC(F)(F)F)c2ncc(-c3ccc(C(=O)NCC)c(C)c3)n2c1` [Example 113, N-ethyl-2-methyl-4-{6-[(1E)-prop-1-en-1-yl]-8-[(3,3,3-trifluoropropyl)amino]imidazo[1,2-a]pyridin-3-yl}benzamide], the IC50 was 45.1 nM. Take `CCNC(=O)c1ccc(-c2cnc3c(NCCC(F)(F)F)cc(Oc4ccccc4)cn23)cc1C` [Example 60, N-ethyl-2-methyl-4-{6-phenoxy-8-[(3,3,3-trifluoropropyl)amino]imidazo[1,2-a]pyridin-3-yl}benzamide]: the IC50 worked out at 2.3 nM. On to “tert-butyl {3-[4-(cyclopropylcarbamoyl)-3-methylphenyl]-6-(2-hydroxybenzoyl)imidazo[1,2-a]pyridin-8-yl}(2,2-difluoroethyl)carbamate [Example 168]”, for which the IC50 amounted to 279 nM.

As for `Cc1cc(-c2cnc3c(NCCC(F)(F)F)cc(C#CCO)cn23)ccc1C(=O)NC1(C)CC1` [Example 22, 4-{6-(3-hydroxyprop-1-yn-1-yl)-8-[(3,3,3-trifluoropropyl)amino]imidazo[1,2-a]pyridin-3-yl}-2-methyl-N-(1-methylcyclopropyl)benzamide], the IC50 was determined as 50 nM. On to `CNC(=O)c1ccc(-c2cnc3c(NCCC(F)(F)F)cc(-c4ccc(C(=O)N[C@H]5C[C@@H]5F)c(C)c4)cn23)cc1C` (relative stereo) [Example 154, 4-{6-(4-{[rel-(1S,2S)-2-fluorocyclopropyl]carbamoyl}-3-methylphenyl)-8-[(3,3,3-trifluoropropyl)amino]imidazo[1,2-a]pyridin-3-yl}-N,2-dimethylbenzamide], for which the half-inhibitory concentration (IC50) was 12.7 nM. Then `CNC(=O)c1ccc(-c2cnc3c(NCCC(F)(F)F)cc(-c4ccccc4OC)cn23)cc1C` [Example 81, 4-{6-(2-Methoxyphenyl)-8-[(3,3,3-trifluoropropyl)amino]imidazo[1,2-a]pyridin-3-yl}-N,2-dimethylbenzamide], with 19.8 nM; and `Cc1ccc(F)cc1Oc1cc(NCCC(F)(F)F)c2ncc(-c3ccc(C(=O)NC4(C#N)CCC4)c(C)c3)n2c1` [Example 63, N-(1-cyanocyclobutyl)-4-{6-(5-fluoro-2-methylphenoxy)-8-[(3,3,3-trifluoropropyl)amino]imidazor-1,2-aliwridin-3-yl}-2-methylbenzamide], with 59.7 nM. For `C=Cc1cc(NCCC(F)(F)F)c2ncc(-c3ccc(C(=O)NC4CC4)c(C)c3)n2c1` [Example 92, N-cyclopropyl-2-methyl-4-{8-[(3,3,3-trifluoropropyl)amino]-6-vinylimidazo[1,2-a]pyridin-3-yl}benzamide] the value was 13.2 nM. Turning to `COc1cccc(Oc2cc(NCCC(F)(F)F)c3ncc(-c4ccc(C(=O)NC5(C)CC5)c(C)c4)n3c2)c1` [Example 54, 4-{6-(3-Methoxyphenoxy)-8-[(3,3,3-trifluoropropyl)amino]imidazo[1,2-a]pyridin-3-yl}-2-methyl-N-(1-methylcyclopropyl)benzamide], the IC50 worked out at 16 nM. Then `CCNC(=O)c1ccc(-c2cnc3c(NCCC(F)(F)F)cc(Oc4ccc(OC(F)(F)F)cc4)cn23)cc1C` [Example 68, N-ethyl-2-methyl-4-{6-[4-(trifluoromethoxy)phenoxy]-8-[(3,3,3-trifluoropropyl)amino]imidazo[1,2-a]pyridin-3-yl}benzamide], with 124 nM; and `C=Cc1cc(NCCC(F)(F)F)c2ncc(-c3ccc(C(=O)NC4(C#N)CC4)c(C)c3)n2c1` [Example 96, N-(1-cyanocyclopropyl)-2-methyl-4-{8-[(3,3,3-trifluoropropyl)amino]-6-vinylimidazo[1,2-a]pyridin-3-yl}benzamide], with 123 nM; and `Cc1cc(-c2cnc3c(NCCC(F)(F)F)cc(-c4ccc(C(=O)NC5(C#N)CC5)c(C)c4)cn23)ccc1C(=O)NC1CC1` [Example 150, 4-(6-{4-[(1-cyanocyclopropyl)carbamoyl]-3-methylphenyl}-8-[(3,3,3-trifluoropropyl)amino]imidazo[1,2-a]pyridin-3-yl)-N-cyclopropyl-2-methylbenzamide], with 0.8 nM.
